According to patent publication US8420605B2, “Hydrogel compositions” (The University of Strathclyde, priority 2005, dated 2013):
Ends that are not written are not given here. * marks the point of attachment. Fmoc = O=C(OCC1c2ccccc2-c2ccccc21)*; Cbz = O=C(OCc1ccccc1)*

Experiments:
[1] = Preparation of self-assembled peptide hydrogels by pH adjustment (gel formation); format: physicochemical; details: for pH: pH at which the gel formed at the indicated concentrations (Table 3)
Description: Fmoc peptides (from BACHEM Ltd) were weighed out into 4 ml glass vials. 2 ml purified water was added followed by sonication for 30-60 seconds. 0.5M NaOH solution was added in 50 μl droplets until a clear solution was formed. 0.1M HCl was added to the solution by stepwise addition of 50 μl followed by mixing using a vortex. pH values were estimated by transferring a spatula tip of hydrogel onto universal indicator paper.
Self-assembled scaffolds were prepared by first suspending the Fmoc-dipeptide in purified water. Upon increase of the pH by addition of concentrated NaOH (thus de-protonating the carboxylic acid group) to a value of >8, a clear solution was obtained. To this solution, concentrated hydrochloric acid was added drop wise until the pH of the solution became 7, at which point a clear, self-supporting gel was formed.
Table 3 below identifies various peptide derivatives (incorporating an aromatic stacking ligand) and mixtures thereof that formed gels at a pH of 6-8 at the indicated concentrations: […]

[2] = as above; format: physicochemical
[3] = Hydrogel formation from Fmoc-amino acid/di-peptide combinations (tripeptides); format: physicochemical; details: Fmoc-AA + di-peptide combination
Source text: The inventors thought it would be sensible to retain the two consecutive phenylalanine residues in the peptide, but introduce a third amino acid immediately after the Fmoc cap and before the Phe-Phe. […] In addition, the inventors also made the tripeptide: Fmoc-Leu-Leu-Leu.

[4] = Xu et al., J. Am. Chem. Soc. 2003, 125, 13680; cited from earlier work

| Substance | pH [1] | Gel formed? [3] | pH value for gelation [4] | also measured |
| --- | --- | --- | --- | --- |
| Cbz-Leu-Leu-Leu-OH | 7 |  |  | Gel? ([1]; Component 1 5-20 mM/L, pH 7): ✓ |
| Cbz-Phe-Phe-OH | 6-8 |  |  | Gel? ([1]; Component 1 10-30 mM/L, pH 6-8): ✓ |
| Fmoc-Ala-Ala-OH | 3 |  |  | Gel? ([2]; Component 1 40 mM/L, pH 3): ✓ |
| Fmoc-Ala-Phe-Phe |  | ✓ |  |  |
| Fmoc-D-Ala-D-Ala |  |  | 3 |  |
| Fmoc-Gly-D-Ala |  |  | 5 |  |
| Fmoc-Gly-L-SER |  |  | 5 |  |
| Fmoc-L-Ala-L-Ala |  |  | 3 |  |
| Fmoc-Leu-Phe-Phe |  | ✓ |  |  |
| Fmoc-Phe-Gly-OH | 3-5 |  |  | Gel? ([2]; Component 1 20 mM/L, pH 3-5): ✓ |

Second part, led by results:

| pH [1] | Gel formed? [3] | Substance | pH value for gelation [4] | also measured |
| --- | --- | --- | --- | --- |
| 3-5 |  | Fmoc-Gly-Gly-OH | 3 | Gel? ([2]; Component 1 10-40 mM/L, pH 3-5): ✓ |
| 2 |  | Fmoc-Leu-Gly-OH |  | Gel? ([2]; Component 1 20 mM/L, pH 2): ✓ |
|  | ✓ | Fmoc-Leu-Leu-Leu |  |  |
| 7 | ✓ | Fmoc-Phe-Phe-Phe-OH |  | Gel? ([1]; Component 1 5-20 mM/L, pH 7): ✓ |
|  | ✓ | Fmoc-Val-Phe-Phe |  |  |
